Values quoted from earlier work, collected in patent US20250090695A1, “IMMUNOSTIMULANT-CYTOTOXIC CONJUGATE COMPOSITION AND METHODS FOR CANCER TREATMENT” (The Research Foundation for the State University of New York, priority 2022, published 2025).

Columns and labels:
[1] = metastatic setting; cited from earlier work
[2] = patients; versus 11.2 months with placebo; cited from earlier work

Row | Molecule | Overall survival extension [1] | Overall survival [2] [months]
1 | CNC(=O)c1ccc(N2C(=S)N(c3ccc(C#N)c(C(F)(F)F)c3)C(=O)C2(C)C)cc1F [enzalutamide] | 4-5 months | –
2 | Radium-223 | – | 14
